Experimental data reported in publication PMC9920413, “New Bicyclic Pyridine-Based Hybrids Linked to the 1,2,3-Triazole Unit: Synthesis via Click Reaction and Evaluation of Neurotropic Activity and Molecular Docking” (Molecules, 2023).

Experiments:
[1] = test system: thiosemicarbazide (TSC)-induced convulsions; experiment: Thiosemicarbazide (TSC) seizures; type: in vivo, mice; details: mice; for response vs control in vivo at 100 mg/kg: Mus musculus, ip, compound 100 mg/kg i.p., relative to control = 1.0, read-out: Latency of Convulsions, Induced by TSC, I (index of latent period of TSC seizures); for Latency of Convulsions, Induced by TSC, M ± M: compound 100 mg/kg i.p. 45 min before TSC 18 mg/kg s.c.
Procedure: (§1) The study of the anticonvulsant activity of hybrids 7a–u was assessed by evaluating the antagonism to pentylenetetrazole (PTZ), thiosemicarbazide convulsive seizures, and maximal electroshock-induced seizures (MES). The PTZ-induced test is considered an experimental model for the clonic component of epilepsy seizures and the prognostic anxiolytic activity of the compounds. PTZ is a common convulsive agent used in animal models to investigate the mechanisms of seizures. The model of thiosemicarbazide (TSC) seizures (affecting the exchange of GABA) causes clonic seizures similar to pentylenetetrazole ones. The MES test is used as an animal model for the generalization of tonic seizures in epilepsy. The neurotoxicity and side effects of the compounds (movement coordination disorder, myorelaxation, and ataxia) were also studied on mice with the “rotating rod”[29] test.
Thiosemicarbazide, an antimetabolite of GABA inhibitor (glutamic acid decarboxylase) in the brain, is administered subcutaneously to mice at a dose of 18 mg/kg as a 0.5% solution, which causes clonic convulsions in animals. Anti-thiosemicarbazide activity was evaluated based on the latency time of the onset of seizures. Compounds were administered intraperitoneally at doses of 100 mg/kg in suspension with carboxymethylcellulose and Tween-80 45 min before administration of thiosemicarbazide.

[2] = Rotating rod test (neurotoxicity, myorelaxation); type: in vivo; details: outbred, mouse, in vivo, ip, mice, myorelaxation in 50% of animals
Procedure: as §1
(§2) Adverse neurotoxic (muscle relaxant) effects of compounds were studied at doses of 50 to 500 mg/kg when administered intraperitoneally, as well as reference drugs in effect at anticonvulsant doses. Myorelaxation was investigated with the test of a “rotating rod” in mice. To this end, mice were planted on a metal rod with a corrugated rubber coating, which rotated at a speed of 5 revolutions per minute. The number of animals that cnot stay on it for 2 min was determined. To determine the ED50, neurotoxic TD50, and LD50, the statistical method of penetration by Litchfield and Wilcoxon was used.

mice = experiment: Forced swimming test; details: 50 mg/kg, 6 min; for Total Time of Immobilization: control 42.0 ± 7.24; for Total Time of Active Swimming: control 318.0 ± 8.36;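 for all read-outs here: mice made to swim in a water-filled glass vessel under natural light, with durations of active swimming and immobility recorded across the 6 min session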
Procedure: Forced swimming test. To assess “despair and depression”, the “compelling swimming” model was used. Experimental animals were forced to swim in a glass container (height 22 cm, diameter 14 cm), filled 1/3 with water. […] The latent period of immobilization, the total duration of active swimming and immobilization are fixed at 6 min (the experiments were conducted under natural light).

[3] = test system: pentylenetetrazole (PTZ)-induced convulsions; experiment: Antagonism to pentylenetetrazole (PTZ) convulsions; type: in vivo; details: for ED50: Mus musculus, mice, i.p. 45 min before PTZ 90 mg/kg s.c., confidence limits in brackets, p = 0.05, read-out: ED50 (by PTZ antagonism); for TI: therapeutic index TI = LD50/ED50
Procedure: as §1
The anticonvulsant effect of the newly synthesized compounds was investigated by tests comprising pentylenetetrazole, thiosemicarbazide convulsions, and maximal electroshock (MES). Outbred mice (weight 18–22 g) were used for the study. […] Each animal is placed into an individual plastic cage for observation lasting 1 h. Seizures and clonic convulsions were recorded. […] The control animals were administered as an emulsifier. Every dose of each test compound was studied in six animals.
as §2

rats [4] = experiment: Open field test; type: in vivo; details: 50 mg/kg i.p.; for Cells Examination, amount (absolute data during 5 min): control 2.4 ± 0.67; for Vertical Displacement, amount (absolute data during 5 min): control 7.0 ± 2.14; for Horizontal Displacement, amount (absolute data during 5 min): control 21.6 ± 2.25
Procedure: Open field test. The research-motor behavior of rats was studied on a modified “open field” model. For this purpose, an installation was used, the bottom of which is divided into squares with holes (cells). Experiments were performed in the daytime with natural light. Within 5 min of the experiment, the indicators of sedative and activating behavior were determined, namely the number of horizontal movements, standing on the hind legs (vertical movements), and sniffing of the cells. The number of animals on this model was eight for each compound, control, and reference drug.

in vivo = details: outbred, mouse, in vivo; mice, dead animals after 24 h
Procedure: as §2

mouse = experiment: Elevated plus maze (EPM) test; type: in vivo; details: 50 mg/kg i.p., 5 min; for Time Spent in the Open Arms: control 2.6 ± 1.6; for Number of Entries into the Closed Arms: control 9.4 ± 1.6; for Time Spent in the Center: control 28.2 ± 3.12; for Time Spent in Closed Arms: control 269.2 ± 10.4
Source text: Elevated plus maze—EPM test. Anti-anxiety and sedative effects were studied on mouse a model of the “elevated plus maze”. The labyrinth is a cruciform machine raised above the floor, with a pair of open and closed sleeves opposed to each other. Normal animals prefer to spend most of their time in the closed (dark) sleeves of the labyrinth. The anxiolytic effect of the compounds was estimated by the increase in the number of entries into open (light) sleeves and the time spent in them without increasing the total motor activity. This records the time spent in the closed sleeve and the number of attempts to enter the installation center. In the above model, the test compounds and the reference drug were injected intraperitoneally before the experiments. The control animals were administered as an emulsifier. Results were processed statistically (p < 0.05).

rats [5] = experiment: Electroshock retrograde amnesia, conditioned response of passive avoidance (CRPA); type: in vivo; details: 1000 mg/kg, study for 5 min
Procedure: Test for learning and memory. The antiamnesic properties of the compounds were studied using an electroshock amnesia model modified by J. Bures, O. Buresova. In rats, a conditioned passive avoidance reaction (CRPA) to a dark-light setting was developed, while the training of the animals with CRPA was recorded. The residence times in the light and dark compartments were recorded for 5 min (300 s). Then, in the dark compartment, the animal received a single current shock (0.4 mA) through the electrode floor (training). To obtain amnesia, a maximum electroconvulsive seizure is induced in animals (conducting a maximum electric current of 50 Hz for 0.2 s through corneal electrodes). Conducting an electric shock immediately after training causes the erasure of the memory trace. The test for reproduction is carried out 24 h after training—after the development of CRPA. During this period, the control animals forget the training and prefer to be in the dark part of the chamber. An increase in the time spent by rats in the light compartment compared to the control on the second day indicates the presence of antiamnestic properties of the compounds.

| SMILES | response vs control in vivo at 100 mg/kg [1] [%] | Latency of Convulsions, Induced by TSC, M ± M [1] [min] | TD50 at 2 min [2] [mg/kg] | Total Time of Immobilization (mice) [s] | Total Time of Active Swimming (mice) [s] | ED50 [3] [mg/kg] | TI [3] | Cells Examination, amount (absolute data during 5 min) (rats [4]) | Vertical Displacement, amount (absolute data during 5 min) (rats [4]) | Horizontal Displacement, amount (absolute data during 5 min) (rats [4]) | LD50 at 24 h (in vivo) [mg/kg] | Time Spent in the Open Arms (mouse) [s] | Number of Entries into the Closed Arms (mouse) | Time Spent in the Center (mouse) [s] | Time Spent in Closed Arms (mouse) [s] | The Time Spent in the Light Chamber When Playing CRPA + MESH after 24 h, Second Day (rats [5]) [s] | The Time Spent in the Light Chamber during the Training of the CRPA, First Day (rats [5]) [s] |
| --- | --- | --- | --- | --- | --- | --- | --- | --- | --- | --- | --- | --- | --- | --- | --- | --- | --- |
| CCCc1nc(N2CCN(C(=O)Cn3cc(COc4nc(CC)c5c(c4C#N)CC(C)(C)OC5)nn3)CC2)c(C#N)c2c1COC(C)(C)C2 [7r, 6-[(1-{2-[4-(5-Cyano-3,3-dimethyl-8-propyl-3,4-dihydro-1H-pyrano [3,4-c]pyridin-6-yl)piperazin-1-yl]-2-oxoethyl}-1H-1,2,3-triazol-4-yl)methoxy]-8-ethyl-3,3-dimethyl-3,4-dihydro-1H-pyrano [3,4-c]pyridine-5-carbonitrile] | 394 | 39.4 ± 1.11 | > 500 | 36.0 ± 5.55 | 324.0 ± 18.55 | 26 | 27.3 | 4.4 ± 1.89 | 2.2 ± 1.36 | 30.0 ± 2.48 | 710 | 7.0 ± 2.59 | 3.4 ± 1.59 | 83.0 ± 5.1 | 210.4 ± 10.3 | – | – |
| CCc1nc(N2CCN(C(=O)Cn3cc(COc4nc(C(C)C)c5c(c4C#N)CCCC5)nn3)CC2)c(C#N)c2c1COC(C)(C)C2 [7h] | 150 | 15.2 ± 1.2 | > 500 | 2.0 ± 0.8 | 358.0 ± 8.2 | 27 | 26.7 | 6.8 ± 3.12 | 6.0 ± 0.89 | 63.8 ± 14.02 | 720 | 30.0 ± 2.4 | 4.8 ± 1.34 | 28.4 ± 2.38 | 246.6 ± 21.9 | – | – |
| CCCc1nc(N2CCN(C(=O)Cn3cc(COc4nc(C)c5c(c4C#N)CC(C)(C)OC5)nn3)CC2)c(C#N)c2c1COC(C)(C)C2 [7o] | 304 | 30.4 ± 1.1 | > 500 | 2.0 ± 0.4 | 358.0 ± 12.0 | 28 | 28.6 | 8.6 ± 3.25 | 9.6 ± 3.89 | 73.0 ± 13.37 | 800 | 10.0 ± 2.78 | 5.8 ± 1.03 | 61.0 ± 3.68 | 229.0 ± 11.2 | – | – |
| CCc1nc(OCc2cn(CC(=O)N3CCN(c4nc(CC)c5c(c4C#N)CC(C)(C)OC5)CC3)nn2)c(C#N)c2c1COC(C)(C)C2 [7q, 6-{4-[(4-{[(5-Cyano-8-ethyl-3,3-dimethyl-3,4-dihydro-1H-pyrano [3,4-c]pyridin-6-yl)oxy]methyl}-1H-1,2,3-triazol-1-yl)acetyl]piperazin-1-yl}-8-ethyl-3,3-dimethyl-3,4-dihydro-1H-pyrano [3,4-c]pyridine-5-carbonitrile] | 220 | 22.0 ± 2.2 | > 500 | 24.0 ± 2.9 | 336.0 ± 25.3 | 42 | 18.8 | 7.4 ± 2.42 | 8.8 ± 1.61 | 60.2 ± 4.61 | 790 | 24.0 ± 2.5 | 5.0 ± 2.19 | 50.8 ± 3.4 | 225.2 ± 13.87 | – | – |
| CCCc1nc(N2CCN(C(=O)Cn3cc(COc4nc(C(C)C)c5c(c4C#N)CCC5)nn3)CC2)c(C#N)c2c1COC(C)(C)C2 [7c, 6-{4-[(4-{[(4-Cyano-1-isopropyl-6,7-dihydro-5H-cyclopenta[c]pyridin-3-yl)oxy]methyl}-1H-1,2,3-triazol-1-yl)acetyl]piperazin-1-yl}-3,3-dimethyl-8-propyl-3,4-dihydro-1H-pyrano [3,4-c]pyridine-5-carbonitrile] | 250 | 25.0 ± 4.1 | > 500 | 10.0 ± 4.1 | 350.0 ± 11.62 | 35 | 18.6 | 4.2 ± 0.56 | 6.2 ± 1.03 | 57.2 ± 12.85 | 650 | 10.6 ± 2.1 | 2.6 ± 1.4 | 45.4 ± 4.7 | 244.0 ± 10.67 | – | – |
| NC(=O)CN1CCCC1=O [Piracetam, piracetam, reference compound] | – | – | – | – | – | – | – | – | – | – | – | – | – | – | – | 243.7 ± 8.4 | 158.0 ± 5.9 |
